The target in assay [1] is KIF18A (Homo sapiens (Human), UniProt Q8NI77). Put plainly: KIF18A ATPase activity under tubulin stimulation (ADP-Glo assay). Particulars: KIF18A 30 nM, ATP 150 μM, pig microtubules. The class given is biochemical. The procedure: This experiment assesses the inhibitory effect of the compounds of the present disclosure on the KIF18A target according to the IC50 values by measuring the KIF18A ATPase activity under tubulin stimulation with the presence of the compounds.
• 1. Preparation of 30 mL of reaction buffer: • (1) 450 μL 1M Tris-HCl (pH=7.5)+300 μL 1M MgCl2+30 μL 10% Pluronic F-68 (ThermoFisher, 24040032-100 ml); • (2) adjusting pH to 7.5, and adding water to adjust the volume to 30 mL. • 2. Preparation of a 5 mg/mL pig microtubule (Microtubules; MT) (Cytoskeleton Inc, MT002) stock solution: • (1) 10 mL PM buffer=150 μL 1 M PIPES (pH 7.0)+20 μL 0.5 mM MgCl2+100 μL 2 mM Taxol (Cytoskeleton Inc, TXD01)+9730 μL water. • (2) MT ([…]): Adding 100 μL PM buffer to prepare a 5 mg/mL stock solution. Keeping the MT (Cytoskeleton Inc, MT002) at room temperature for 10-15 minutes, gently mixing and storing same at −80° C. • 3. Preparation of 2 mL of kinase buffer: 2 mL reaction buffer+1 μL 2 mM Taxol (Cytoskeleton Inc, TXD01)+12 μL 5 mg/mL MT (Cytoskeleton Inc, MT002). • 4. Preparation of 2×KIF18A (30 nM) (ChemPartner, CPB-P22-31645) working solution: 2.4 μL 10 μM KIF18A (ChemPartner, CPB-P22-31645)+800 μL 1× kinase buffer. • 5. Preparation of 2×ATP (150 μM) (Promega, G9101) working solution: 12 μL 10 mM ATP+800 μL 1× kinase buffer. • 6. 25 nL of compound was transferred to a 384-well plate using Echo650. • 7. 2.5 μL of 2×KIF18A from Step 4 (final concentration of 30 nM) was added to the 384-well plate and the plate was incubated at 25° C. for 15 minutes. • 8. 2.5 μL of 2×ATP from Step 5 (final concentration of 150 μM) was added to the 384-well plate and the plate was incubated at 25° C. for 15 minutes. • 9. 5 μL ADP-Glo™ Reagent (Promega, G9101) was added to the 384-well plate and the plate was incubated at 25° C. for 40 minutes. • 10. 10 μL of kinase detection reagent (Promega, G9101) was added to the 384-well plate and the plate was incubated at 25° C. for 40 minutes. • 11. Luminescence values were measured using the EnVision Xcite Multilabel Reader (PerkinElmer, 2105-0020).
A general note: ADP-Glo turns the ADP formed in a reaction into a luminescent signal.

Assay [2] deals with OVCAR-3 cells. Put plainly: OVCAR-3 cell proliferation (Cell Titer-Glo, 10 days). The assay is classed as cell-based, human. Here is the method: The inhibitory effect on the KIF18A target by the compounds of the present disclosure was evaluated by testing the inhibitory effect on proliferation of OVCAR-3 cells by the compounds of the present disclosure.
The following method was used to determine the effect of the compounds of the present disclosure on the proliferation of human ovarian cancer cells Ovcar-3 (HTB-161, ATCC). Cells were cultured in RPMI-1640 complete medium containing 20% fetal bovine serum, 0.01 mg/mL bovine insulin, 100 U penicillin, and 100 μg/mL streptomycin. The Promega kit Cell Titer-Glo (Cat. No. G7572) was used in this method for test.
For specific steps, reference was made to the kit instructions, and the procedure was outlined below: Test compounds were dissolved in DMSO to prepare a 10 mM stock solution, which was diluted at the predetermined test concentrations, and the test compounds at different concentrations were added to a 384-well cell test plate using ECHO. In the plate pre-added with the test compounds, 400 OVCAR-3 cells in the logarithmic growth phase were seeded per well, ensuring the final concentration of the test compounds in the reaction system ranged between 0.12 nM and 10 μM. The co-culture was maintained in a cell culture incubator for 10 days. Before testing, the cell culture plate was equilibrated for 10 minutes at room temperature, 25 μL of Cell Titer-Glo was added to each well, and the mixture was shaken and mixed well and let stand for 5 minutes. The luminescence values for samples in various wells were read using a microplate reader in Luminescence mode.
The percentage of inhibition of cell proliferation by the test compound at each concentration was calculated by comparing with the values of the control group (0.1% DMSO). The IC50 values of the compounds were obtained by concentration-inhibition rate nonlinear regression analysis of the test compounds using GraphPad Prism 9.

Like-named read-outs stand apart in the source and are kept apart here.

Chain of KIF18A (Q8NI77 whole entry): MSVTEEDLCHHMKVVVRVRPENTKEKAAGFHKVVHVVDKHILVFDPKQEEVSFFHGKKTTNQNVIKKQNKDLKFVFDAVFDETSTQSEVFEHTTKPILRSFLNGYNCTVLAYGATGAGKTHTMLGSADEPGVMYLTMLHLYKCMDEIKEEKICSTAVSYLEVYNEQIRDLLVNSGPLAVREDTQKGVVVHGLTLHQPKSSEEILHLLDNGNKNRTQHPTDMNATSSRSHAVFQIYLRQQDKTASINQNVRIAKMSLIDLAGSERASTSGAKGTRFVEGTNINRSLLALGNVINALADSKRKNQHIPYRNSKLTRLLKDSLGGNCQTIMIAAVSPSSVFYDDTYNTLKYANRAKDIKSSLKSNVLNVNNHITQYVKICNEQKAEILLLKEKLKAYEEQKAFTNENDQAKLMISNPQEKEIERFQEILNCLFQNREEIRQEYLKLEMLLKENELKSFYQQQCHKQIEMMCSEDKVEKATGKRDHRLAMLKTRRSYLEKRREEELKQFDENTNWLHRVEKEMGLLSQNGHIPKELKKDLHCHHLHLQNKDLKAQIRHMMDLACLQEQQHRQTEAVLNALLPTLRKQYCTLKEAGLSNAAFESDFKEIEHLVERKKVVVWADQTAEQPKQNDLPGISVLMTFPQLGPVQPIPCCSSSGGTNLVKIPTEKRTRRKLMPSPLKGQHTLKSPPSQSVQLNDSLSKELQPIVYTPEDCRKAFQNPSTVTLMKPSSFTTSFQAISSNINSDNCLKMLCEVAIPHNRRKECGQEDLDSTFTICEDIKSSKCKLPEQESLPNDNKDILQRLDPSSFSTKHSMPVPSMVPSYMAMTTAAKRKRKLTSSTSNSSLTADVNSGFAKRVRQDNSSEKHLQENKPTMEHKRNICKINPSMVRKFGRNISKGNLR
Chain of KIF18A (P02550 whole entry partner): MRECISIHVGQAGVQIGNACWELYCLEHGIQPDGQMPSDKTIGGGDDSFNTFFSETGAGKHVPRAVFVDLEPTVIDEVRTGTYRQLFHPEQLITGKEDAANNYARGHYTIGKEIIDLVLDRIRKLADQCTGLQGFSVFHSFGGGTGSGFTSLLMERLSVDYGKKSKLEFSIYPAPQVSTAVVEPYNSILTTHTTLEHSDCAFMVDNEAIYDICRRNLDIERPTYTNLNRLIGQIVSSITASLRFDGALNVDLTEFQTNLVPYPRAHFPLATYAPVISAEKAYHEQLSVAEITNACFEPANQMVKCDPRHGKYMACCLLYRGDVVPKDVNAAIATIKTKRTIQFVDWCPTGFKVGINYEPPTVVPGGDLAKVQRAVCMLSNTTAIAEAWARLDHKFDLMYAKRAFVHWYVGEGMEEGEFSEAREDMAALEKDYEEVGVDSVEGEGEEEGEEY
Chain of KIF18A (P02554 whole entry partner): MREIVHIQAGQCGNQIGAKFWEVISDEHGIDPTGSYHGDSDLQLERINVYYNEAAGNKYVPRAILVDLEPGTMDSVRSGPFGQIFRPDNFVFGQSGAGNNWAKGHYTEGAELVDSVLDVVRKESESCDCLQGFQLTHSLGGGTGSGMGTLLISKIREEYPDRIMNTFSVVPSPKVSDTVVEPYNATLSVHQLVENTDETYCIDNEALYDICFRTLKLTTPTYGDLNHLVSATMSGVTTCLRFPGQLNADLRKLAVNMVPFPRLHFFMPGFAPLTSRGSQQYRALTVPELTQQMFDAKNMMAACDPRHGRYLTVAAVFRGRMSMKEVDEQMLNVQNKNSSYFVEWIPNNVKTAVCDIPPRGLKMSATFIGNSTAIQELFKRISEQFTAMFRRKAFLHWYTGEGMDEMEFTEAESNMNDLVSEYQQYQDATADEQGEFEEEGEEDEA

Broadly, the IC50 is the point on the concentration scale where inhibition reaches its midpoint. Lower therefore signals greater potency. Take `CC1OCCn2c1cc1c(NC(=O)c3ccc(NS(=O)(=O)CCO)cc3N3CCC4(CC3)CC4)cccc12` (centres unmarked) [Compound 311-P2, 4-((2-hydroxyethyl)sulfonamido)-N-(1-methyl-3,4-dihydro-1H-[1,4]oxazinyl[4,3-a]indol-9-yl)-2-(6-azaspiro[2.5]oct-6-yl)benzamide]: the half-inhibitory concentration (IC50) in assay [1] and in assay [2] was ≤ 50 nM in each case.
For the compound `COc1ccc(NC(=O)c2ccc(NS(=O)(=O)CCO)cc2N2CCC3(CC2)CC3)c2cc3n(c12)CCC(F)(F)C3OC` (centres unmarked) [Example 479, N-(8,8-difluoro-4,9-dimethoxy-6,7,8,9-tetrahydropyridino[1,2-a]indol-1-yl)-4-((2-hydroxyethyl)sulfonamido)-2-(6-azaspiro[2.5]oct-6-yl)benzamide], the half-maximal inhibitory concentration (IC50) was 50 to 500 nM in assay [1] and 50 to 500 nM in assay [2] (Homo sapiens, OVCAR-3, 240 h).
Regarding `O=C(Nc1cccc2c1cc1n2CCCC1O)c1ccc(NS(=O)(=O)CCO)cc1N1CCC2(CC1)CC2` (centres unmarked) [Example 342, N-(9-hydroxy-6,7,8,9-tetrahydropyridino[1,2-a]indol-1-yl)-4-((2-hydroxyethyl)sulfonamido)-2-(6-azaspiro[2.5]octan-6-yl)benzamide], the IC50 is ≤ 50 nM in assay [1] and 50 to 500 nM in assay [2] (Homo sapiens, OVCAR-3, 240 h).
The matching figures for `O=C(Nc1cccc2c1cc1n2CCC(F)(F)C1O)c1ccc(NS(=O)(=O)CCO)cc1N1CCC2(CC1)CC2` (centres unmarked) [Compound 384, N-(8,8-difluoro-9-hydroxy-6,7,8,9-tetrahydropyridino[1,2-a]indol-1-yl)-4-((2-hydroxyethyl)sulfonamido)-2-(6-azaspiro[2.5]oct-6-yl)benzamide]: 50 to 500 nM and ≤ 50 nM.
For `CC1(C)Cn2c(cc3c(NC(=O)c4ccc(NS(=O)(=O)CCO)cc4N4CCC(=C(F)F)CC4)ccc(OC(F)(F)F)c32)CO1` [Example 574], the 50% inhibitory concentration (IC50) in assay [1] lay within 50 to 500 nM; in assay [2] (Homo sapiens, OVCAR-3, 240 h), 50 to 500 nM.
For `O=C(Nc1cccc2c1cc1n2CCC(F)(F)C1O)c1ccc(NS(=O)(=O)CCO)cc1N1CCC(=C(F)F)CC1` (centres unmarked) [Compound 383, N-(8,8-difluoro-9-hydroxy-6,7,8,9-tetrahydropyridino[1,2-a]indol-1-yl)-2-(4-(difluoromethylene)piperidin-1-yl)-4-((2-hydroxyethyl)sulfonamido)benzamide], the half-maximal inhibitory concentration (IC50) in assay [1] was ≤ 50 nM; in assay [2] (Homo sapiens, OVCAR-3, 240 h), ≤ 50 nM.
As to `CCNC(=O)c1ccc(NC(=O)c2ccc(NS(=O)(=O)CCO)cc2N2CCC(=C(F)F)CC2)c2cc3n(c12)CC(C)(C)OC3` [Example 528], the concentration for half-maximal inhibition (IC50) in assay [1] was 50 to 500 nM; in assay [2] (Homo sapiens, OVCAR-3, 240 h), ≤ 50 nM.
In the case of `CC1(C)Cn2c(cc3c(NC(=O)c4ccc(NS(=O)(=O)CCO)cc4N4CCC(=C(F)F)CC4)ccc(Cl)c32)CO1` [Example 522, N-(6-chloro-3,3-dimethyl-3,4-dihydro-1H-[1,4]oxazino[4,3-a]indol-9-yl)-2-[4-(difluoromethylene)hexahydropyridin-1-yl]-4-{[(2-hydroxyethyl)sulfonamide]}benzamide], the half-inhibitory concentration (IC50) in assay [2] (Homo sapiens, OVCAR-3, 240 h) was 50 to 500 nM.
With `[2H]C([2H])([2H])OC1c2cc3c(NC(=O)c4ccc(NS(=O)(=O)CCO)cc4N4CCC5(CC4)CC5)cccc3n2CCC1(F)F` (single isomer, unassigned) [Compound 385-P1, N-(8,8-difluoro-9-(methoxy-d3)-6,7,8,9-tetrahydropyridino[1,2-a]indol-1-yl)-4-((2-hydroxyethyl)sulfonamido)-2-(6-azaspiro[2.5]oct-6-yl)benzamide], in assay [2] (Homo sapiens, OVCAR-3, 240 h), the half-maximal inhibitory concentration (IC50) is 50 to 500 nM.
Compound `CC1(C)Cn2c(cc3c(NC(=O)c4cnc(NS(=O)(=O)CCO)cc4N4CCC5(CC4)CC5)cccc32)CO1` [Example 454, N-(3,3-dimethyl-3,4-dihydro-1H-[1,4]oxazino[4,3-a]indol-9-yl)-6-(2-hydroxyethylsulfonamide)-4-(6-azaspiro[2.5]octan-6-yl)nicotinamide] came in with an IC50 in assay [2] (Homo sapiens, OVCAR-3, 240 h) of 50 to 500 nM.
For `O=C(Nc1ncnc2c1ccn2CC1CC1)c1ccc(NS(=O)(=O)CCO)cc1N1CCC2(CC1)CC2` [Example 34, N-(7-(cyclopropylmethyl)-7H-pyrrolo[2,3-d]pyrimidin-4-yl)-4-((2-hydroxyethyl)sulfonamido)-2-(6-azaspiro[2.5]octan-6-yl)benzamide], the IC50 in assay [1] was in the range of 500 to 5000 nM.
Same read-out and setting: as for `O=C(Nc1cccc2c1ccn2CC1CC1)c1ccc(NS(=O)(=O)CCO)nc1N1CCC2(CC1)CC2` [Example 38, N-(1-(cyclopropylmethyl)-1H-indol-4-yl)-6-((2-hydroxyethyl)sulfonamido)-2-(6-azaspiro[2.5]oct-6-yl)nicotinamide], the figure is 50 to 500 nM; as for `O=C(Nc1cccc2c1CCCCN2CC1CC1)c1ccc(NS(=O)(=O)CCO)cc1N1CCC2(CC1)CC2` [Example 12], 500 to 5000 nM.
For `CN1CCCc2c(NC(=O)c3ccc(NS(=O)(=O)CCO)cc3N3CCC4(CC3)CC4)ccnc21` [Example 7, 4-(2-hydroxyethyl)sulfonamido-N-(8-methyl-5,6,7,8-tetrahydro-1,8-naphthyridin-4-yl)-2-(6-azaspiro[2.5]octan-6-yl)benzamide], the IC50 in assay [1] lay within 50 to 500 nM.
On the same count and under the same terms, as for `O=C(Nc1nccc2c1cc1n2CCOC1)c1ccc(NS(=O)(=O)CCO)cc1N1CCC2(CC1)CC2` [Example 306, N-(3,4-dihydro-1H-pyridino[3′,4′:4,5]pyrrolo[2,1-c][1,4]oxazin-9-yl)-4-((2-hydroxyethyl)sulfonamido)-2-(6-azaspiro[2.5]oct-6-yl)benzamide], the figure is > 5000 nM.
With `CC1(Cn2ccc3c(NC(=O)c4ccc(NS(=O)(=O)CCO)cc4N4CCC5(CC4)CC5)cccc32)CC1` [Example 285, 4-((2-hydroxyethyl)sulfonamido)-N-(1-((1-methylcyclopropyl)methyl)-1H-indol-4-yl)-2-(6-azaspiro[2.5]oct-6-yl)benzamide], the IC50 in assay [1] was in the range of 50 to 500 nM.
Regarding `O=C(Nc1cccc2c1ccn2CC1(C(F)(F)F)CC1)c1ccc(NS(=O)(=O)CCO)cc1N1CCC2(CC1)CC2` [Example 284], the IC50 in assay [1] was 500 to 5000 nM.
Same read-out and setting: the same measure for `O=C(Nc1ccnc2c1CCN2CC1CC1)c1ccc(NS(=O)(=O)CCO)cc1N1CCC2(CC1)CC2` [Example 32, N-(1-(cyclopropylmethyl)-2,3-dihydro-1H-pyrrolo[2,3-b]pyridin-4-yl)-4-((2-hydroxyethyl)sulfanilamido)-2-(6-azaspiro[2.5]octan-6-yl)4-benzamide]: 50 to 500 nM.
Regarding `COC1c2cc3c(NC(=O)c4ccc(NS(=O)(=O)CCO)cc4N4CCC(=C(F)F)CC4)ccc(C#N)c3n2CCC1(F)F` (centres unmarked) [Compound 427, N-(4-cyano-8,8-difluoro-9-methoxy-6,7,8,9-tetrahydropyridino[1,2-a]indol-1-yl)-2-(4-(difluoromethylene)piperidin-1-yl)-4-((2-hydroxyethyl)sulfonamide)benzamide], the IC50 in assay [2] (Homo sapiens, OVCAR-3, 240 h) was 50 to 500 nM.
Turning to `CNc1cc(NS(=O)(=O)CCO)cc(N2CCC3(CC2)CC3)c1C(=O)Nc1cccc2c1ccn2CC1CC1` [Example 39], the IC50 in assay [1] is 50 to 500 nM.
Same read-out and setting: the same measure for `CNc1cc(NS(=O)(=O)CCO)cc(N2CCC3(CC2)CC3)c1C(=O)Nc1ccnc2c1ccn2CC1CC1` [Example 40]: 50 to 500 nM; for `CN1CCCCc2c(NC(=O)c3ccc(NS(=O)(=O)CCO)cc3N3CCC4(CC3)CC4)cccc21` [Example 11, 4-((2-hydroxyethyl)sulfonamido)-N-(1-methyl-2,3,4,5-tetrahydro-1H-benzo[b]azepin-6-yl)-2-(6-azaspiro[2.5]octan-6-yl)benzamide]: 500 to 5000 nM.

These data come from patent publication US20260070887A1 (Shenzhen Zhongge Biological Technology Co., Ltd., priority 2022, published 2026).
